5 compounds from US20250092039A1, “GLUTARIMIDE-CONTAINING PAN-KRAS-MUTANT DEGRADER COMPOUNDS AND USES THEREOF” (Tiger Biotherapeutics Inc., priority 2022, published 2025) can be followed below.

Molecules are shown by their SMILES. Read-outs that look alike come from different tables or passages of the source.

One test deals with KRAS G12V (Homo sapiens (Human), UniProt P01116, G12V). Kind of test: KRAS G12V degradation in SW620 cells (Western blot, DC50). The settings on record: 24 hours. The format is cell-based. The method in brief:
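KRAS levels were quantified by fluorescent Western blot as percent of the DMSO control after 24 h of compound exposure at 37° C in homozygous KRAS G12V SW620 cells. A four-parameter variable-slope fit of the dose-response gave the half-maximal degradation concentration.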

The next test deals with KRAS-G12V/RAF1 (Homo sapiens (Human), UniProt P01116, G12V). Description: KRAS/RAF1 binding inhibition assay (AlphaScreen). The method in brief: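 IC50 comes from variable-slope nonlinear fits of % inhibition (relative to DMSO) against inhibitor concentration. The AlphaScreen signal tracks the interaction of GppNHp-bound KRAS G12V with the RAF1 RBD after 60 min at 4° C with compound in 2% DMSO final.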
(Alpha assays give light when donor and acceptor beads are brought close together.)

Another test deals with SW620 cells. Kind of test: 3D cell growth inhibition of SW620 cells carrying endogenous KRAS G12V mutation (CellTiter-Glo 3D, GI50). The format is cell-based. To be noted: Homo sapiens, SW-620, 144 h, read-out: SW620 3D cell growth GI50. An outline of the steps: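 […], compound exposure lasted 6 days at 37° C, added the day after plating from DMSO stocks over a concentration range. Cells: SW620, KRAS G12V, 3D culture.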

KRAS-G12V/RAF1, sequence (P01116-2 other isoform, or with tags, fused parts or gaps G12V): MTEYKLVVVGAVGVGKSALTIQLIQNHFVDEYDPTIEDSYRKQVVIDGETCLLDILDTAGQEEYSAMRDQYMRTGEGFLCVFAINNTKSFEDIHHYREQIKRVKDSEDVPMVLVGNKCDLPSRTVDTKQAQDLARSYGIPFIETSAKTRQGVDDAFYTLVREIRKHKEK
KRAS G12V, sequence (P01116-2 other isoform, or with tags, fused parts or gaps G12V): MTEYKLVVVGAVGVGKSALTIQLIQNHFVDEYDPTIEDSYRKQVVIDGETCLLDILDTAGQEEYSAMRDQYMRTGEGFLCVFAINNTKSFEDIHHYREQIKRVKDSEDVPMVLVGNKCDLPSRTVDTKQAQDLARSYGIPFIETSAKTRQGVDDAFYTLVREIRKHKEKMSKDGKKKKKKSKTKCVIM

Regarding `CCc1c(F)ccc2cc(O)cc(-c3ncc4c(N5CCC[C@@](C)(O)C5)nc(OCC5(CN6CCC(OC7CCN(C8CCN(c9ccc%10c(c9)CN(C9CCC(=O)NC9=O)C%10=O)CC8)CC7)CC6)CC5)nc4c3F)c12` (stereo partly drawn) [Compound 43, 3-(5-(4-((1-((1-(((7-(8-ethyl-7-fluoro-3-hydroxynaphthalen-1-yl)-8-fluoro-4-((R)-3-hydroxy-3-methylpiperidin-1-yl)pyrido[4,3-d]pyrimidin-2-yl)oxy)methyl)cyclopropyl)methyl)piperidin-4-yl)oxy)-[1,4′-bipiperidin]-1′-yl)-1-oxoisoindolin-2-yl)piperidine-2,6-dione], the DC50 (as a rule, the concentration giving 50% degradation) on KRAS G12V was less than 1 nM. Further, the IC50 (commonly the concentration that gives 50% inhibition) on KRAS-G12V/RAF1 was less than 20 nM. Further, in the test on SW620 cells (SW620 cells, 6 days), the GI50 (commonly the concentration at which growth is held to half of that of the control) is less than 10 nM.

The compound `CCc1c(F)ccc2cc(O)cc(-c3ncc4c(N5CCC[C@@](C)(O)C5)nc(OCC5(CN6CCC7(CCN(CCc8cc(F)c(C9CCC(=O)NC9=O)c(F)c8)CC7)CC6)CC5)nc4c3F)c12` (stereo partly drawn) [Compound 56, 3-(4-(2-(9-((1-(((7-(8-ethyl-7-fluoro-3-hydroxynaphthalen-1-yl)-8-fluoro-4-((R)-3-hydroxy-3-methylpiperidin-1-yl)pyrido[4,3-d]pyrimidin-2-yl)oxy)methyl)cyclopropyl)methyl)-3,9-diazaspiro[5.5]undecan-3-yl)ethyl)-2,6-difluorophenyl) piperidine-2,6-dione] displayed a DC50 at KRAS G12V of 1 to 10 nM. The compound further yielded a concentration for half-maximal inhibition (IC50) on KRAS-G12V/RAF1 of less than 20 nM. Further, the GI50 in the test on SW620 cells was less than 10 nM.

`CCc1c(F)ccc2cc(O)cc(-c3ncc4c(N5CCC[C@@](C)(O)C5)nc(OCC5(CN6CCC(N7CC8(CCN(c9cc(F)c(C%10CCC(=O)NC%10=O)c(F)c9)CC8)C7)CC6)CC5)nc4c3F)c12` (stereo partly drawn) [Compound 57, 3-(4-(2-(1-((1-(((7-(8-ethyl-7-fluoro-3-hydroxynaphthalen-1-yl)-8-fluoro-4-((R)-3-hydroxy-3-methylpiperidin-1-yl)pyrido[4,3-d]pyrimidin-2-yl)oxy)methyl)cyclopropyl)methyl)piperidin-4-yl)-2,7-diazaspiro[3.5]nonan-7-yl)-2,6-difluorophenyl)piperidine-2,6-dione] gave a DC50 at KRAS G12V of 1 to 10 nM. Also, at KRAS-G12V/RAF1, the concentration for half-maximal inhibition (IC50) is less than 20 nM. Further, the GI50 in the test with SW620 cells (SW620 cells, 6 days) was less than 10 nM.

The compound `CCc1c(F)ccc2cc(O)cc(-c3ncc4c(N5CCC[C@@](C)(O)C5)nc(OCC5(CN6CCC(C)(CN7CCN(c8ccc9c(c8)CN([C@@H]8CCC(=O)NC8=O)C9=O)CC7)CC6)CC5)nc4c3F)c12` [Compound 63, (R)-3-(5-(4-((1-((1-(((7-(8-ethyl-7-fluoro-3-hydroxynaphthalen-1-yl)-8-fluoro-4-((R)-3-hydroxy-3-methylpiperidin-1-yl)pyrido[4,3-d]pyrimidin-2-yl)oxy)methyl)cyclopropyl)methyl)-4-methylpiperidin-4-yl)methyl)piperazin-1-yl)-1-oxoisoindolin-2-yl)piperidine-2,6-dione] displayed a DC50 on KRAS G12V of 1 to 10 nM. The same compound displayed an IC50 at KRAS-G12V/RAF1 of 20 to 200 nM. Moreover, the GI50 with SW620 cells (SW620 cells, 6 days) was less than 10 nM.

Compound `CCc1c(F)ccc2cc(O)cc(-c3ncc4c(N5CCC[C@@](C)(O)C5)nc(OCC5(CN6CCC(F)(CN7CCC(N8CCN(c9ccc%10c(c9)CN([C@H]9CCC(=O)NC9=O)C%10=O)CC8)CC7)CC6)CC5)nc4c3F)c12` [Compound 72, (S)-3-(5-(4-(1-((1-((1-(((7-(8-ethyl-7-fluoro-3-hydroxynaphthalen-1-yl)-8-fluoro-4-((R)-3-hydroxy-3-methylpiperidin-1-yl)pyrido[4,3-d]pyrimidin-2-yl)oxy)methyl)cyclopropyl)methyl)-4-fluoropiperidin-4-yl)methyl)piperidin-4-yl)piperazin-1-yl)-1-oxoisoindolin-2-yl)piperidine-2,6-dione] gave a half-maximal degradation concentration (DC50) on KRAS G12V of less than 1 nM. Besides, the IC50 at KRAS-G12V/RAF1 is less than 20 nM. The GI50 in the test on SW620 cells (SW620 cells, 6 days) is less than 10 nM.
